Where two headings read alike, the source gives them in different places.
Assays:
[1] = system: peripheral blood mononuclear cells (PBMC) in 34 HIV-1+ patients; conditions: 5 μM, positive ≧30 SFC IFN-γ/10^6 PBMC
Description: (§1) Step d) is achieved by synthesizing the peptides representing the epitopes of the present invention, followed by ELISPOT assay to detect IFN-γ-producing cells. For the purposes of the present invention, the positivity cutoff value used is ≧30 SFC IFN-γ/10^6 PBMC, calculated based on the levels of responses of HIV-1 seronegative patients
(§2) Synthetic peptide stocks were diluted to 25 mg/mL in dimethylsulphoxide, followed by ELISPOT assays for detection of IFN-γ-producing cells in response to the epitopes using peripheral blood mononuclear cells (PBMC) in 34 HIV-1+ patients of several clinical groups, long-term nonprogressors (LTNP), reconsituted, partial controllers, and progressors. Each epitope was tested in a concentration of 5 μM. The cryopreserved cells were maintained in culture for 16 hours, placed on plates in the presence of the epitopes, incubated for a further 18 hours, washed and ELISPOT plates were developed for the identification of spot-forming cells/Interferon-γ-producing cells (IFN-γ SFC), which were then counted in an automated counter (Zeiss KS ELISpot/Axioplan 2).

[2] = system: peripheral blood mononuclear cells from HIV-1 seronegative individuals; conditions: for IFN-γ spots/10^6 PBMC, Average (AV): average of 8 seronegative individuals; for IFN-γ spots/10^6 PBMC, Average (AV) / IFN-γ spots/10^6 PBMC: peptide 5 μM; for IFN-γ spots/10^6 PBMC, AV + 3SD: average plus 3 standard deviations, 8 seronegative individuals
Description: as §1, §2

Row | Sequence | percentage of HIV-1+ patients recognizing the individual peptide [1] | IFN-γ spots/10^6 PBMC, Average (AV) [2] | IFN-γ spots/10^6 PBMC, AV + 3SD [2] | IFN-γ spots/10^6 PBMC ([2]; seronegative individual C#01) | IFN-γ spots/10^6 PBMC ([2]; seronegative individual C#02) | IFN-γ spots/10^6 PBMC ([2]; seronegative individual C#03) | IFN-γ spots/10^6 PBMC ([2]; seronegative individual C#04) | IFN-γ spots/10^6 PBMC ([2]; seronegative individual C#05) | IFN-γ spots/10^6 PBMC ([2]; seronegative individual C#06) | IFN-γ spots/10^6 PBMC ([2]; seronegative individual C#07) | IFN-γ spots/10^6 PBMC ([2]; seronegative individual C#08)
1 | QRPLVTIKIGGQLKE [pol 1] | 44% | 5.1 spots/10^6 PBMC | 26.9 spots/10^6 PBMC | 0 spots/10^6 PBMC | 0 spots/10^6 PBMC | 20 spots/10^6 PBMC | 12 spots/10^6 PBMC | 3 spots/10^6 PBMC | 0 spots/10^6 PBMC | 1 spots/10^6 PBMC | 5 spots/10^6 PBMC
2 | TMLLGMLMICSAA [env 2] |  | 3.4 spots/10^6 PBMC | 19.7 spots/10^6 PBMC | 0 spots/10^6 PBMC | 7 spots/10^6 PBMC | 5 spots/10^6 PBMC | 0 spots/10^6 PBMC | 0 spots/10^6 PBMC | 0 spots/10^6 PBMC | 0 spots/10^6 PBMC | 15 spots/10^6 PBMC
3 | EELRSLYNTVATLYCVH [gag 1] |  | 1.7 spots/10^6 PBMC | 10.0 spots/10^6 PBMC | 0 spots/10^6 PBMC | 7 spots/10^6 PBMC | 0 spots/10^6 PBMC | 2 spots/10^6 PBMC | 0 spots/10^6 PBMC | 0 spots/10^6 PBMC | 0 spots/10^6 PBMC | 5 spots/10^6 PBMC
4 | KRWIILGLNKIVRMYSPTSI [gag 3] |  | 3.6 spots/10^6 PBMC | 20 spots/10^6 PBMC | 0 spots/10^6 PBMC | 12 spots/10^6 PBMC | 5 spots/10^6 PBMC | 12 spots/10^6 PBMC | 0 spots/10^6 PBMC | 0 spots/10^6 PBMC | 0 spots/10^6 PBMC | 0 spots/10^6 PBMC
5 | NTSYRLISCNTSVI [env 4] |  | 5.2 spots/10^6 PBMC | 24.6 spots/10^6 PBMC | 0 spots/10^6 PBMC | 7 spots/10^6 PBMC | 15 spots/10^6 PBMC | 2 spots/10^6 PBMC | 3 spots/10^6 PBMC | 0 spots/10^6 PBMC | 0 spots/10^6 PBMC | 15 spots/10^6 PBMC
6 | VLAIVALVVATIIAI [vpu 1] |  | 3.7 spots/10^6 PBMC | 16.2 spots/10^6 PBMC | 0 spots/10^6 PBMC | 0 spots/10^6 PBMC | 7 spots/10^6 PBMC | 7 spots/10^6 PBMC | 0 spots/10^6 PBMC | 0 spots/10^6 PBMC | 6 spots/10^6 PBMC | 10 spots/10^6 PBMC
7 | EAIIRILQQLLFIHF [vpr 2] |  | 4.6 spots/10^6 PBMC | 24.2 spots/10^6 PBMC | 0 spots/10^6 PBMC | 12 spots/10^6 PBMC | 15 spots/10^6 PBMC | 0 spots/10^6 PBMC | 0 spots/10^6 PBMC | 0 spots/10^6 PBMC | 0 spots/10^6 PBMC | 10 spots/10^6 PBMC
8 | QQLLFIHFRIGCRHSRIG [vpr 3] |  | 1.9 spots/10^6 PBMC | 12.3 spots/10^6 PBMC | 0 spots/10^6 PBMC | 8 spots/10^6 PBMC | 7 spots/10^6 PBMC | 0 spots/10^6 PBMC | 0 spots/10^6 PBMC | 0 spots/10^6 PBMC | 0 spots/10^6 PBMC | 0 spots/10^6 PBMC
9 | SPEVIPMFSALSE [gag 2] |  | 0.9 spots/10^6 PBMC | 6.3 spots/10^6 PBMC | 0 spots/10^6 PBMC | 2 spots/10^6 PBMC | 0 spots/10^6 PBMC | 0 spots/10^6 PBMC | 0 spots/10^6 PBMC | 0 spots/10^6 PBMC | 0 spots/10^6 PBMC | 5 spots/10^6 PBMC
10 | SELYLYKVVKIEPLGVAP [env 5] |  | 0.6 spots/10^6 PBMC | 5.9 spots/10^6 PBMC | 0 spots/10^6 PBMC | 0 spots/10^6 PBMC | 5 spots/10^6 PBMC | 0 spots/10^6 PBMC | 0 spots/10^6 PBMC | 0 spots/10^6 PBMC | 0 spots/10^6 PBMC | 0 spots/10^6 PBMC

— patent US8338582B2, “Anti-HIV immunogens and methods for inducing an immune response” (Fundacao de Amparo a Pesquisa do Estado de Sao Paulo, priority 2005, dated 2012)
